Experimental data taken from PubChem BioAssay (NCI).
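48-hour exposure; five concentrations; linearly interpolated endpoints. GI50: concentration for 50% inhibition of growth. TGI marks complete inhibition of growth.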

Test system: UO-31 renal
Assay: inhibition of tumour cell growth, NCI panel, 48 h

Row | SMILES | GI50 [µM] | TGI [µM]
1 | O=C(/C=C\c1ccc(NCc2ccc(C(=O)O)cc2)cc1)CCl | 14.6 | 29.2
2 | COc1cccc(C#Cc2ccccc2C#CCCCCO)c1 | 8.79 | 22.3
3 | CC(C)C[C@H](NC(=O)/C=C/Cn1ccc2ccccc2c1=O)B(O)O | 9.45 | > 100
4 | O=C1/C(=C/c2cccc([N+](=O)[O-])c2)COc2ccc(Br)cc21 | – | > 100
5 | COc1cccc2c(=O)c3c(sc12)c(N1CCNCC1)nc1ccccc13 | 1.07 | 2.32
6 | COc1c(CCl)cc(-c2cc(=O)c3ccccc3s2)cc1CCl | – | 3.84
7 | CSC(C1c2ccccc2N(c2ccc(C)cc2)c2[nH]c(=O)n(C)c(=O)c21)S(=O)(=O)c1ccc(C)cc1 (configuration not stated) | – | > 100
8 | CCOC(=O)NC(=O)c1cn(CCCOC(=O)CCCCCCCCCCC(=O)OCCCn2cc(C(=O)NC(=O)OCC)c(=O)[nH]c2=O)c(=O)[nH]c1=O | – | > 100
9 | COc1cc2[nH]c(C(=O)c3cc(OC)c(OC)c(OC)c3)c(N)c2cc1C#CC1CC1 | 2.6 | > 100
10 | COc1ccc(/C=C/C(=O)C(CC2CCC2)C(=O)/C=C/c2ccc(OC)c(OC)c2)cc1OC | 1.56 | 2.9
11 | O=c1cc(NC2CCN(CCCc3ccccc3)CC2)c2cc(Cl)ccc2o1 | 4.39 | 17.8
12 | COc1cc(/C=C(\C#N)c2ccccc2)cc(OC)c1 | – | > 100
13 | CC(=O)N[C@H]1CSSC[C@@H](C(N)=O)NC(=O)[C@H](C(C)C)NC(=O)[C@H](C)NC(=O)[C@H](Cc2cnc[nH]2)NC1=O | > 100 | > 100
14 | O=C1CC2c3ccccc3CCC2c2ccccc21 (configuration not stated) | – | 50.8
15 | CCCCCCCCCCCC(=O)OCC1OC(OC)C(NC(=O)N(CCCl)N=O)C(O)C1O (configuration not stated) | – | 33.5
16 | C=CC/C=C/C/C=C/CCCCCCCc1cccc(O)c1C(=O)O | – | 79.1
17 | CN(CCC#N)c1ccc(/C=C(\C#N)c2ccc(Br)cc2)cc1 | > 100 | > 100
18 | COc1cc(NC(C)CCCN)c2nccc(C)c2c1 (configuration not stated) | – | 53.8
19 | CCCCCCCCCCCCCCCCCCOc1ccccc1CC(=O)OCC[N+]1(C)CCCC1 | 3.27 | 15
20 | c1ccc(C2Nc3ccccc3C3OCCCC23)cc1 (configuration not stated) | – | > 100
21 | CCOc1cc(C(C)(C)C)ccc1C1=N[C@@](C)(c2ccc(Cl)cc2)[C@@](C)(c2ccc(Cl)cc2)N1C(=O)N1CCN(CCCS(C)(=O)=O)CC1 | 0.401 | 8.59

Test system: RXF 393 renal
Assay: inhibition of tumour cell growth, NCI panel, 48 h

Row | SMILES | GI50 [µM] | TGI [µM]
22 | Nc1ccc(-c2nc3ccc(Cc4ccc5nc(-c6ccc(N)cc6)[nH]c5c4)cc3[nH]2)cc1 | 15.7 | 42.9
23 | O=C1[C@@H]2C(c3ccccc3F)=NO[C@@H]2C(=O)N1c1ccc(Cc2ccc(N3C(=O)[C@H]4C(c5ccccc5F)=NO[C@H]4C3=O)cc2)cc1 | – | > 81.3
24 | Cn1c2ccccc2c(=O)c2ccc(Cl)cc21 | – | > 10
25 | CC(CO)(CO)NCCCCn1ccc2c1C(=O)c1c(c(O)c3ccccc3c1O)C2=O | 4.49 | 31.7
26 | Clc1ccc2c(c1)-c1c3c(nn1-c1ccccc1)-c1ccccc1SC3O2 (configuration not stated) | – | > 100
27 | O=C1OC2CCCC[C@@H]2C2C[C@]34CCCCC3[C@@H](C(=O)O4)C12 (some centres not stated) | – | > 100
28 | COc1cc(/C=C/c2cc(/C=C/c3ccc(O)c(OC)c3)n(C(=O)Nc3ccc(C)cc3C)n2)ccc1O | 0.262 | 0.775
29 | NC(=O)NCc1c(C(N)=O)ncn1Cc1ccccc1 | – | > 100
30 | C1CCC([PH+](C2CCCCC2)C2CCCCC2[PH+](C2CCCCC2)C2CCCCC2)CC1.O=C(C1[CH-]CCCC1)C1CCCC[N-]1.[Au] (configuration not stated) | 0.317 | 1.38
31 | O=C(c1ccccc1)C1OC12C(=O)Nc1ccccc12 (configuration not stated) | – | 54.7
32 | COc1cccc(C#Cc2ccccc2C#CCCCCO)c1 | 1.78 | 9.89
33 | CC(C)C[C@H](NC(=O)/C=C/Cn1ccc2ccccc2c1=O)B(O)O | 2.13 | 5.15
34 | O=C1/C(=C/c2cccc([N+](=O)[O-])c2)COc2ccc(Br)cc21 | – | > 100
35 | COc1cccc2c(=O)c3c(sc12)c(N1CCNCC1)nc1ccccc13 | 1.53 | 3.05
36 | COc1c(CCl)cc(-c2cc(=O)c3ccccc3s2)cc1CCl | – | 3.2
37 | COc1ccc(/C=C/C(=O)C(CC2CCC2)C(=O)/C=C/c2ccc(OC)c(OC)c2)cc1OC | 1.85 | 3.47
38 | O=c1cc(NC2CCN(CCCc3ccccc3)CC2)c2cc(Cl)ccc2o1 | 5.88 | 21.2
39 | CC(=O)N[C@H]1CSSC[C@@H](C(N)=O)NC(=O)[C@H](C(C)C)NC(=O)[C@H](C)NC(=O)[C@H](Cc2cnc[nH]2)NC1=O | > 100 | > 100
40 | CCCCCCCCCCCC(=O)OCC1OC(OC)C(NC(=O)N(CCCl)N=O)C(O)C1O (configuration not stated) | – | 26.4
41 | CN(CCC#N)c1ccc(/C=C(\C#N)c2ccc(Br)cc2)cc1 | 3.37 | > 100
42 | CCCCCCCCCCCCCCCCCCOc1ccccc1CC(=O)OCC[N+]1(C)CCCC1 | 1.35 | 2.76
43 | c1ccc(C2Nc3ccccc3C3OCCCC23)cc1 (configuration not stated) | – | 50.4
44 | CCOc1cc(C(C)(C)C)ccc1C1=N[C@@](C)(c2ccc(Cl)cc2)[C@@](C)(c2ccc(Cl)cc2)N1C(=O)N1CCN(CCCS(C)(=O)=O)CC1 | 3.39 | 14.4

Test system: HCT-116 colon
Assay: inhibition of tumour cell growth, NCI panel, 48 h

Row | SMILES | TGI [µM] | GI50 [µM]
45 | O=C1[C@@H]2C(c3ccccc3F)=NO[C@@H]2C(=O)N1c1ccc(Cc2ccc(N3C(=O)[C@H]4C(c5ccccc5F)=NO[C@H]4C3=O)cc2)cc1 | > 100 | –
46 | Cn1c2ccccc2c(=O)c2ccc(Cl)cc21 | > 10 | –
47 | CC(CO)(CO)NCCCCn1ccc2c1C(=O)c1c(c(O)c3ccccc3c1O)C2=O | 2.92 | 1.58
48 | Clc1ccc2c(c1)-c1c3c(nn1-c1ccccc1)-c1ccccc1SC3O2 (configuration not stated) | > 100 | –
49 | O=C1OC2CCCC[C@@H]2C2C[C@]34CCCCC3[C@@H](C(=O)O4)C12 (some centres not stated) | > 100 | –
50 | CN(C)c1cc[c]([Sn]([c]2ccc(N(C)C)cc2)([c]2ccc(N(C)C)cc2)[c]2ccc(N(C)C)cc2)cc1 | 13.9 | 3.94
51 | CCN(CC)c1ccc(N=Nc2ccc(-c3nc4ccc[n+](C)c4s3)cc2)cc1 | 20.5 | –
52 | NC(=O)NCc1c(C(N)=O)ncn1Cc1ccccc1 | > 100 | –
53 | O=C1CSC(/C(=N/Nc2ccccc2)c2nc3ccccc3[nH]2)=N1 | > 100 | –
54 | Cc1[nH]c2ccccc2c(=O)c1CC=C(Cl)Cl | > 100 | 45.3
55 | O=C(c1ccccc1)C1OC12C(=O)Nc1ccccc12 (configuration not stated) | > 100 | –
56 | O=C(/C=C\c1ccc(NCc2ccc(C(=O)O)cc2)cc1)CCl | 10.3 | 2.5
57 | COc1cccc(C#Cc2ccccc2C#CCCCCO)c1 | 26.4 | 12.2
58 | CC(C)C[C@H](NC(=O)/C=C/Cn1ccc2ccccc2c1=O)B(O)O | 12.6 | 2.95
59 | O=C1/C(=C/c2cccc([N+](=O)[O-])c2)COc2ccc(Br)cc21 | > 100 | –
60 | COc1cccc2c(=O)c3c(sc12)c(N1CCNCC1)nc1ccccc13 | 3.28 | 1.55
61 | COc1c(CCl)cc(-c2cc(=O)c3ccccc3s2)cc1CCl | > 100 | –
62 | CSC(C1c2ccccc2N(c2ccc(C)cc2)c2[nH]c(=O)n(C)c(=O)c21)S(=O)(=O)c1ccc(C)cc1 (configuration not stated) | > 100 | –
63 | CCOC(=O)NC(=O)c1cn(CCCOC(=O)CCCCCCCCCCC(=O)OCCCn2cc(C(=O)NC(=O)OCC)c(=O)[nH]c2=O)c(=O)[nH]c1=O | > 100 | –
64 | COc1cc2[nH]c(C(=O)c3cc(OC)c(OC)c(OC)c3)c(N)c2cc1C#CC1CC1 | 85.3 | 2.06
65 | COc1ccc(/C=C/C(=O)C(CC2CCC2)C(=O)/C=C/c2ccc(OC)c(OC)c2)cc1OC | 2.42 | 0.965
66 | O=c1cc(NC2CCN(CCCc3ccccc3)CC2)c2cc(Cl)ccc2o1 | 16.5 | 4.02
67 | COc1cc(/C=C(\C#N)c2ccccc2)cc(OC)c1 | > 100 | –
68 | O=C1CC2c3ccccc3CCC2c2ccccc21 (configuration not stated) | 42.1 | –
69 | CCCCCCCCCCCC(=O)OCC1OC(OC)C(NC(=O)N(CCCl)N=O)C(O)C1O (configuration not stated) | 29.2 | –
70 | C=CC/C=C/C/C=C/CCCCCCCc1cccc(O)c1C(=O)O | > 100 | –
71 | COc1cc(NC(C)CCCN)c2nccc(C)c2c1 (configuration not stated) | 29.3 | –
72 | c1ccc(C2Nc3ccccc3C3OCCCC23)cc1 (configuration not stated) | 87.3 | –

Test system: U251 CNS
Assay: inhibition of tumour cell growth, NCI panel, 48 h

Row | SMILES | TGI [µM]
73 | O=C1[C@@H]2C(c3ccccc3F)=NO[C@@H]2C(=O)N1c1ccc(Cc2ccc(N3C(=O)[C@H]4C(c5ccccc5F)=NO[C@H]4C3=O)cc2)cc1 | > 100
